{"source": "patent US20100105610A1", "about": "“Methods of Inhibiting Tumor Cell Aggressiveness Using the Microenvironment of Human Embryonic Stem Cells” (CHILDREN'S MEMORIAL HOSPITAL, priority 2006, published 2010)", "key": {"[1]": {"tested_on": "C8161 human cutaneous melanoma cells", "experiment": "In vivo tumor formation, C8161 cells injected subcutaneously into nude mice", "set-up": "species or system mouse", "conditions": "250,000 Morpholino-treated C8161 cells injected, vs control", "experimental": "A microenvironment of human embryonic stem cells (H9 CMTX) was prepared as described above. C8161 human cutaneous melanoma cells were exposed to the H9 CMTX or Matrigel for 3 to 4 days prior to transplantation in a mouse model. Nude immunocompromised mice received an injection of the C8161 cells subcutaneously into the midscapular region (to mimic spontaneous metastatic dissemination found in human cancers). The animals were injected using a 25 or 27-gauge needle with 2.5×10^5 tumor cells/mouse in 0.05 ml RPMI media.\nAs a corollary to these findings, an orthotopic mouse model was used to examine the effect of Nodal inhibition on melanoma tumor formation. For the experimental tumourigenesis model, 5 week old nude mice (Harlan, Madison, Wis.) were injected subcutaneously with 250,000 C8161 cells, treated with control or anti-Nodal Morpholinos, in 50 μL of complete RPMI. Tumor measurements were taken on days 3, 7, 14 and 17 post-injection, and mice were sacrificed on day 17. For the orthotopic mouse tumor formation studies, statistical significance was determined using the Kruskal-Wallis One Way Analysis of Variance on Ranks, followed by Dunn's method. […]"}, "C8161 cells [2]": {"tested_on": "C8161 cells", "experiment": "Anchorage independent growth / soft agar colony formation, C8161", "type": "cell-based, human", "conditions": "C8161 cells, soft agar, after 2 weeks", "experimental": "An in vitro colony forming assay was used to analyze colony-forming ability of poorly aggressive C81-61 cells, aggressive C8161 cells, C8161 cells treated with MONodal and C8161 cells treated with MONodal and rescued with recombinant Nodal (100 ng/mL). The assay was conducted using 50,000 cells suspended in 0.35% agarose in RPMI containing 10% serum, which were plated into 6-well dishes on 0.5% agar in the same medium. Colonies grew, and pictures were taken at day 7. After 2 weeks, colonies were stained with Crystal Violet and counted.\nClonogenicity of cells are assessed as previously described. Hamburger, A. W., and Salmon, S. E., 1977, Science 197:461-463. Each parameter is tested in triplicate for clone formation in soft agar. Briefly, […] are plated in 60 mm Petri dishes in complete medium placed over the soft agar. On specific days after the cells are plated, phase contrast images of the colonies are taken using a Zeiss Axiovert 25 with an Hitachi HCV-20 color camera.\nAnchorage independent growth assays were conducted as previously described. Topczewska et al., 2006, Nat. Med. 12: 925-932."}, "C8161 cells [3]": {"tested_on": "C8161 cells", "experiment": "In vitro proliferation assay (cell count), C8161", "type": "cell-based, human", "conditions": "C8161, relative to MO Control; 4 days after plating 15,000 cells"}, "MDA-MB-231 cells": {"tested_on": "MDA-MB-231 cells", "experiment": "In vitro proliferation assay (cell count), MDA-MB-231", "type": "cell-based, human", "conditions": "MDA-MB-231, relative to MO Control; 4 days after plating 15,000 cells"}, "[4]": {"tested_on": "MDA-MB-231 breast carcinoma cells", "experiment": "In vivo tumor cell proliferation-to-apoptosis ratio (Ki67 / TUNEL), MDA-MB-231 tumors", "conditions": "MDA-MB-231 cells treated prior to injection into mouse", "description": "(A) In vivo tumor formation in a mouse injected with MDA-MB-231 cells pre-exposed for 3 days to either a control matrix (Matrigel) or a matrix conditioned by hESCs (H9 CMTX) (n=10) (B) C81-61 cells, transfected with either an empty vector or a Nodal expression construct (n=5), and (C) MDA-MB-231 cells treated with either MO^Control or MO^Nodal (n=10). […] (D) The ratio of tumor cell proliferation to apoptosis for C8161 and MDA-MB-231 derived tumors, determined by immunohistochemical staining for Ki67 and terminal deoxynucleotidyl transferase biotin-dUTP nick-end labeling (TUNEL). Prior to injection into a mouse, C8161 and MDA-MB-231 cells were cultured for 3 days on control or hESC conditioned (H9 CMTX) matrices, or treated with MO^Nodal to knock down Nodal expression. […] (E) Immunohistochemical analysis of Ki67 expression (red/brown) and TUNEL staining in orthotopic melanoma (C8161) and breast carcinoma (MDA-MB-231) tumors. […] Proliferation is indicated by Ki67 staining and apoptotic nuclei were detected with confocal microscopy as red staining localized to the nuclei of apoptotic C8161 or MDA-MB-231 cells. […]\nIn order to establish a mechanism by which exposure to the hESC microenvironment abrogates tumorigenicity, the effects of this treatment on the in vivo tumor cell proliferation-to-apoptosis ratio were analyzed. […]"}}, "data": [{"substance": "MO^Nodal: antisense Morpholino to Nodal, 5′-AAGCAGCACCTCCAGCCCTTATATC-3′ (SEQ ID NO: 20) (all phosphorodiamidate morpholino (PMO); further chemistry not fully specified)", "values": [{"measurement": "diminution of tumor incidence", "setting": "[1]", "value": 30, "unit": "%"}, {"measurement": "tumorigenicity", "setting": "[1]", "value": "significant reduction"}, {"measurement": "reduction of colony formation", "setting": "C8161 cells [2]", "value": 57, "unit": "%"}, {"measurement": "in vitro cell proliferation", "setting": "C8161 cells [3]", "value": "reduced proliferation"}, {"measurement": "in vitro cell proliferation", "setting": "MDA-MB-231 cells", "value": "reduced proliferation"}, {"measurement": "ratio of proliferation to apoptosis", "setting": "[4]", "value": "decreased"}]}]}
